Measurements: patent publication US20200062773A1, “4,4a,5,7-TETRAHYDRO-3H-FURO[3,4-b]PYRIDINYL COMPOUNDS” (Janssen Pharmaceutlca NV, priority 2016, published 2020)

Assays:
[1] = biological target: T1, BACE2 (Homo sapiens, UniProt Q9Y5Z0); assay: BACE2 biochemical FRET based assay; conditions: recombinant BACE2, 450 minutes at room temperature, pH 5.0; for IC50: read-out: Biochemical FRET based assay pIC50 (converted)
T1 construct: recombinant BACE2 protein in a final concentration of 0.4 μg/ml
T1 sequence (Q9Y5Z0 63-518): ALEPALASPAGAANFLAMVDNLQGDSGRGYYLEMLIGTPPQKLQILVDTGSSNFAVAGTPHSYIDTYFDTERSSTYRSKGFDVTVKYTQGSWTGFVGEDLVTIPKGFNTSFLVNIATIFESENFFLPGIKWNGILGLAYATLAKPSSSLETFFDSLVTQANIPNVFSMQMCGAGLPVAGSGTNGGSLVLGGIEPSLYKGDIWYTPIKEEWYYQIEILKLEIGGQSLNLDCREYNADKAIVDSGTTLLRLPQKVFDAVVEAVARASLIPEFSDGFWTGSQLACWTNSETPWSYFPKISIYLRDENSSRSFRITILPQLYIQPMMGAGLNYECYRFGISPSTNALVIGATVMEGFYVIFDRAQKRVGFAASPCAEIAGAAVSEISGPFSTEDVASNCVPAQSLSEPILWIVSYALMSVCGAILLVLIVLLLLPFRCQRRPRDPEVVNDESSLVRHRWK
Text: BACE2 Biochemical FRET Based Assay
(§1) This assay is a Fluorescence Resonance Energy Transfer Assay (FRET) based assay. The substrate for this assay contains the ‘Swedish’ Lys-Met/Asn-Leu mutation of the amyloid precursor protein (APP) beta-site APP-cleaving enzyme cleavage site. This substrate also contains two fluorophores: (7-methoxycoumarin-4-yl) acetic acid (Mca) is a fluorescent donor with excitation wavelength at 320 nm and emission at 405 nm and 2,4-Dinitrophenyl (Dnp) is a proprietary quencher acceptor. […] Upon cleavage by the beta-site APP-cleaving enzyme, the fluorophore Mca is separated from the quenching group Dnp, restoring the full fluorescence yield of the donor. The increase in fluorescence is linearly related to the rate of proteolysis.
Briefly in a 384-well format recombinant BACE2 protein in a final concentration of 0.4 μg/ml is incubated for 450 minutes at room temperature with 10 μM substrate in incubation buffer (50 mM Citrate buffer pH 5.0, 0.05% PEG, no DMSO) in the absence or presence of compound. Next the amount of proteolysis is directly measured by fluorescence measurement at T=0 and T=450 (excitation at 320 nm and emission at 405 nm). Results are expressed in RFU (Relative Fluorescence Units), as difference between T450 and T0.
(§2) A best-fit curve is fitted by a minimum sum of squares method to the plot of % Controlmin versus compound concentration. From this an IC50 value (inhibitory concentration causing 50% inhibition of activity) can be obtained.

[2] = system: Abeta 1-42 produced and secreted into the medium of human neuroblastoma SKNBE2 cells; assay: Cellular αLisa assay in SKNBE2 cells; assay type: cell-based; conditions: human neuroblastoma SKNBE2 cells expressing hAPP695, 18 hours incubation; for IC50: Homo sapiens, SKNBE2, 18 h, read-out: Cellular αLisa assay in SKNBE2 cells Abeta 42 pIC50 (converted)
Method: Cellular αLisa Assay in SKNBE2 Cells
In two αLisa assays the levels of Abeta 1-42 produced and secreted into the medium of human neuroblastoma SKNBE2 cells are quantified. The assay is based on the human neuroblastoma SKNBE2 expressing the wild type Amyloid Precursor Protein (hAPP695). The compounds are diluted and added to these cells, incubated for 18 hours and then measurements of Abeta 1-42 are taken. Abeta 1-42 are measured by sandwich αLisa. αLisa is a sandwich assay using biotinylated antibody AbN/25 attached to streptavidin coated beads and antibody cAb42/26 conjugated acceptor beads for the detection of Abeta 1-42 respectively. In the presence of Abeta 1-42, the beads come into close proximity. The excitation of the donor beads provokes the release of singlet oxygen molecules that trigger a cascade of energy transfer in the acceptor beads, resulting in light emission. Light emission is measured after 1 hour incubation (excitation at […] and emission at 615 nm).
as §2

[3] = biological target: T2, BACE1 (Homo sapiens, UniProt P56817); assay: BACE1 biochemical FRET based assay; conditions: Method 1: recombinant BACE1 1 μg/ml, 120 min at room temperature, pH 5.0; for IC50: read-out: Biochemical FRET based assay pIC50 (converted)
T2 construct: recombinant BACE1 protein in a final concentration of 1 μg/ml
Text: BACE1 Biochemical Fret Based Assay
as §1, with “this assay is an APP derived 13 amino acids peptide that contains the” for “this assay contains the”, “cleavage by BACE1, the fluorophore” for “cleavage by the beta-site APP-cleaving enzyme, the fluorophore”
Briefly in a 384-well format recombinant BACE1 protein in a final concentration of 1 μg/ml is incubated for 120 minutes at room temperature with 10 μm substrate in incubation buffer (40 mM Citrate buffer pH 5.0, 0.04% PEG, 4% DMSO) in the absence or presence of compound. Next the amount of proteolysis is directly measured by fluorescence measurement at T=0 and T=120 (excitation at 320 nm and emission at 405 nm). Results are expressed in RFU (Relative Fluorescence Units), as difference between T120 and T0.
as §2

T2 sequence (P56817 46-501): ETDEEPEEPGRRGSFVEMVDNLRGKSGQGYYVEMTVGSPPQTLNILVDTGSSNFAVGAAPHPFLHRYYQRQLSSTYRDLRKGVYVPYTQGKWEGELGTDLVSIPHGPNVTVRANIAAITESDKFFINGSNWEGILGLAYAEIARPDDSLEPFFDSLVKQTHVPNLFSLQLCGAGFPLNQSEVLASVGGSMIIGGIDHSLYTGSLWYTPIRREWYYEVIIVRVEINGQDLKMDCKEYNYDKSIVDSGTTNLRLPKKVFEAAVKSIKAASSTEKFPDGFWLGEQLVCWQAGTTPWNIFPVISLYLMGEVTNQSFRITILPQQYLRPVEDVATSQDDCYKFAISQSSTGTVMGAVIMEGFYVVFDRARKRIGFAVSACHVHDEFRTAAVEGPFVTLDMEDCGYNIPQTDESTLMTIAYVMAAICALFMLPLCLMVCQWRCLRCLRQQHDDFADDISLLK

IC50 [1] [nM] | Cellular αLisa assay in SKNBE2 cells Abeta 42 pIC50 [2] | IC50 [3] [nM] | Biochemical FRET based assay pIC50 [3] | IC50 [2] [nM] | Biochemical FRET based assay pIC50 [1] | SMILES
468 | 7.37 | 35.5 |  |  |  | CC1OCC2(c3cc(NC(=O)c4ccc(C#N)cn4)cc(F)c3F)N=C(N)C(C)(C#N)CC12 (single isomer, unassigned) [33c]
> 10000 | 5.14 | 7590 |  |  |  | CC1OCC2(c3cc(NC(=O)c4ccc(C#N)cn4)cc(F)c3F)N=C(N)C(C)(C#N)CC12 (single isomer, unassigned) [33a]
355 |  | 12.3 |  | 25.7 |  | C[C@@]1(C#N)C[C@@H]2[C@@H](CF)OC[C@]2(c2cc(NC(=O)c3cnc(-n4cncn4)cn3)ccc2F)N=C1N [23a]
158 |  | 14.5 |  | 31.6 |  | C[C@]1(C#N)C[C@@H]2[C@@H](CF)OC[C@]2(c2cc(NC(=O)c3ccc(C#N)cn3)ccc2F)N=C1N [24b]
 |  | 0.955 |  | 3.8 |  | CC1(C#N)CC2C(C(C)(F)F)OCC2(c2cc(NC(=O)c3cnc(OC(F)F)cn3)ccc2F)N=C1N (stereo not shown) [compound 38]
347 | 7.51 | 19.1 |  |  |  | CC1OCC2(c3cc(NC(=O)c4cnc(-n5cncn5)cn4)cc(F)c3F)N=C(N)C(C)(C#N)CC12 (single isomer, unassigned) [32a]
44.7 | 7.81 | 5.5 |  |  |  | CC1OCC2(c3cc(NC(=O)c4ccc(C#N)cn4)cc(F)c3F)N=C(N)C(C)(C#N)CC12 (single isomer, unassigned) [33b]
708 |  | 10.5 |  | 19.5 |  | CC(C)(F)[C@H]1OC[C@]2(c3cc(NC(=O)c4ccc(C#N)cn4)ccc3F)N=C(N)[C@@](C)(C#N)C[C@H]12 [21b]
36.3 |  | 2.82 |  | 6.31 |  | C[C@@]1(C#N)C[C@@H]2[C@@H](C(F)F)OC[C@]2(c2cc(NC(=O)c3ccc(C#N)cn3)ccc2F)N=C1N [27a]
2400 | 7.15 | 66.1 |  |  |  | CC1OCC2(c3cc(NC(=O)c4cnc(OCF)cn4)cc(F)c3F)N=C(N)C(C)(C#N)CC12 (single isomer, unassigned) [31a]
 |  | 2.14 |  | 2.88 |  | CC1(C#N)CC2C(CF)OCC2(c2cc(NC(=O)c3ccc(C#N)cn3)ccc2F)N=C1N (stereo not shown) [24a]
 |  | 1.91 |  | 1.78 |  | Cc1cc(C#N)cnc1C(=O)Nc1ccc(F)c(C23COC(C(C)(F)F)C2CC(C)(C#N)C(N)=N3)c1 (stereo not shown) [compound 37]

Continued, molecule first:

SMILES | IC50 [1] [nM] | Cellular αLisa assay in SKNBE2 cells Abeta 42 pIC50 [2] | IC50 [3] [nM] | Biochemical FRET based assay pIC50 [3] | IC50 [2] [nM] | Biochemical FRET based assay pIC50 [1]
Cl.NC1=N[C@]2(c3cc(NC(=O)c4ccc(F)cn4)ccc3F)CO[C@@H](C(F)(F)F)[C@@H]2CC1 [12b] |  | 5.45 |  | 5.27 |  | 
C[C@@]1(C#N)C[C@H]2[C@H](C(F)(F)F)OC[C@@]2(c2cc(NC(=O)c3cnc(OCF)cn3)ccc2F)N=C1N [7f] |  | 5.43 |  | 5.74 |  | <5
COc1cnc(C(=O)Nc2ccc(F)c([C@]34CO[C@H](C)[C@H]3C[C@@](C)(S(C)(=O)=O)C(N)=N4)c2)cn1 (single isomer, unassigned) [13a] |  | 7.19 |  | 7 |  | 5.9
COc1cnc(C(=O)Nc2ccc(F)c([C@]34CO[C@H](C)[C@H]3C[C@](C)(S(C)(=O)=O)C(N)=N4)c2)cn1 (single isomer, unassigned) [13d] |  | <5.05 |  | <5 |  | <5
CC1OCC2(c3cc(NC(=O)c4cnc(-n5cncn5)cn4)ccc3F)N=C(N)C(C)(C#N)CC12 (single isomer, unassigned) [15a] | 158 | 8.19 | 7.41 |  |  | 
COc1cnc(C(=O)Nc2ccc(F)c([C@@]34CO[C@@H](C)[C@@H]3C[C@](C)(C#N)C(N)=N4)c2)cn1 [1a] |  | 5.12 |  | 5.05 |  | <5
C[C@@H]1OC[C@@]2(c3cc(NC(=O)c4cnc(OCF)cn4)ccc3F)N=C(N)[C@@](C)(C#N)C[C@@H]12 (single isomer, unassigned) [9c] |  | 5.8 |  | 5.76 |  | <5
C[C@@H]1OC[C@@]2(c3cc(NC(=O)c4ccc(F)cn4)ccc3F)N=C(N)[C@@](C)(C#N)C[C@@H]12 (single isomer, unassigned) [10c] |  | 5.29 |  | 5.01 |  | <5
COc1cc(C(=O)Nc2ccc(F)c([C@]34CO[C@H](C(C)(F)F)[C@H]3C[C@@](C)(C#N)C(N)=N4)c2)ncn1 [18a] | 1200 |  | 24.5 |  | 138 | 
COc1cnc(C(=O)Nc2ccc(F)c([C@]34CO[C@H](C)[C@H]3C[C@](C)(C#N)C(N)=N4)c2)cn1 [5b] |  | 7.46 |  | 7.06 |  | 6.17
C[C@H]1OC[C@]2(c3cc(NC(=O)c4cnc(OCF)cn4)ccc3F)N=C(N)[C@](C)(C#N)C[C@H]12 (single isomer, unassigned) [9b] |  | 8.74 |  | 8.28 |  | 7.19
C[C@@]1(C#N)C[C@H]2[C@H](C(F)(F)F)OC[C@@]2(c2cc(NC(=O)c3ccc(C#N)cn3)ccc2F)N=C1N [3e] |  | 5.34 |  | 5.84 |  | <5
C[C@@H]1OC[C@@]2(c3cc(NC(=O)c4ccc(C#N)cn4)ccc3F)N=C(N)[C@](C)(C#N)C[C@@H]12 [6c] |  | 5.14 |  | 5.12 |  | <5
CC(C)(F)[C@H]1OC[C@]2(c3cc(NC(=O)c4ccc(C#N)cn4)ccc3F)N=C(N)[C@](C)(C#N)C[C@H]12 [21a] |  | 8.62 |  |  |  | 
N#Cc1ccc(C(=O)Nc2ccc(F)c([C@@]34CO[C@@H](C(F)(F)F)[C@@H]3CCC(N)=N4)c2)nc1 [11b] |  | 5.9 |  |  |  | 
